According to article PMC12343078, “PeptideMiner—neuropeptide discovery across the animal kingdom” (GigaScience, 2025):
“Also recorded” adds a separate entry of the source. Positions of bridges follow the written chain, without caps; N, C: chain ends. Non-standard residues stand in square brackets, D forms with d. Chains are numbered I, II in the order given. No end group written: not given here. Gla = N[C@@H](CC(C(=O)O)C(=O)O)C(=O)O

Each substance was assayed against T1, human insulin receptor-B (hIR-B) (Homo sapiens, UniProt P06213) (assay: Competition binding to hIR-B against Eu-labeled human insulin).
T1 construct: expressed in transfected cells; lysate captured on an anti-IR antibody-coated plate
T1 sequence (P06213 28-758 limits assumed): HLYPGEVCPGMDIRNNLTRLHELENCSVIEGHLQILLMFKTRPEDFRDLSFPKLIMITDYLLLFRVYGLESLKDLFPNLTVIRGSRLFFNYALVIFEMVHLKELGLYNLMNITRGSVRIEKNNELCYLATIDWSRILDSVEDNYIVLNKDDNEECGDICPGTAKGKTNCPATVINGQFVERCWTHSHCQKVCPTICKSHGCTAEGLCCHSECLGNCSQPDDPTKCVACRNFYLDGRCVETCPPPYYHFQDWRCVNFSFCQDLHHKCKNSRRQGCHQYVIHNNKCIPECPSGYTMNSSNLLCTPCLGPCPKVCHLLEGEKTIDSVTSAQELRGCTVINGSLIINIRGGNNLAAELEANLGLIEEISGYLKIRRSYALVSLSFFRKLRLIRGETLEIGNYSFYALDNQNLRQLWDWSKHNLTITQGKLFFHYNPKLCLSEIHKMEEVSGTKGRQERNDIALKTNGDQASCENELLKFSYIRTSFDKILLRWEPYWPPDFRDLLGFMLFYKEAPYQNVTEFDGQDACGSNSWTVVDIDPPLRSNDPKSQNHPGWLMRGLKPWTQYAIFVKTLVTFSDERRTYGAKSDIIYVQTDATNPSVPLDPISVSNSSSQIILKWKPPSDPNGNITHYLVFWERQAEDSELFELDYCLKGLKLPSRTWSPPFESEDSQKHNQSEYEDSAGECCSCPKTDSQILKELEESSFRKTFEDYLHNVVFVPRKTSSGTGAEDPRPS
T1 sequence (P06213 763-1382 limits assumed): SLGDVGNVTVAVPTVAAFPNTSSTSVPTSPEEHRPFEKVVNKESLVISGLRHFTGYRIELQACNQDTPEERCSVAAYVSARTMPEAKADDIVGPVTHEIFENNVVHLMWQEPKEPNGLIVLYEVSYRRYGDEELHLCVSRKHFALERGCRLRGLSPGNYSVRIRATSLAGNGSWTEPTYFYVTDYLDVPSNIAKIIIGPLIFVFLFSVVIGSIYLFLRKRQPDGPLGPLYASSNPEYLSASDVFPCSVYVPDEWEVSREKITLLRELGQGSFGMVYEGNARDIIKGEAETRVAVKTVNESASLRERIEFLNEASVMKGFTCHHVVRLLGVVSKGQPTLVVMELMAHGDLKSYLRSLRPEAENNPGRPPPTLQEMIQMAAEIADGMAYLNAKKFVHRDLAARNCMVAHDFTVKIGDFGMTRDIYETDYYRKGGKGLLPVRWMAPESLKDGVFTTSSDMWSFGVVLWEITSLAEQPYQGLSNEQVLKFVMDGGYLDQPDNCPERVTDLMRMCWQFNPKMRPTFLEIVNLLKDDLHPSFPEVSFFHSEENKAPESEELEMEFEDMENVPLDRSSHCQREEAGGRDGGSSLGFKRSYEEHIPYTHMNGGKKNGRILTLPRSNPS
Procedure: Receptor binding was measured as described previously. […] Cells were serum-starved for 4 hours before lysis. Lysates were captured in a 96-well plate previously coated with anti-IR antibody. […] After washing, time-resolved fluorescence was measured using 340-nm excitation and 612-nm emission filters with the BMG Lab Technologies Polarstar fluorometer.

Substance | hIR-B binding, result in words
I: TNIPATLILQKHRCGSELADQYVQLCH-NH2 / II: GIV[Gla]VCCDNPCTVATLRTFCH (disulfide I:14-II:7, I:26-II:20, II:6-II:11; C-terminus assumed) [Con-Ins G7] | potent hIR-B binding; also recorded: low nanomolar binding
I: NSDTPKHRCVSELADQYVQLCH-NH2 / II: GIV[Gla]VCCDNPCTVATLRTFCH (disulfide I:9-II:7, I:21-II:20, II:6-II:11; C-terminus assumed) [Con-Ins G3c] | completely abolishes hIR-B binding
I: NSDTPKHRCGSELADQYVYLCHGERNDA-NH2 / II: GIV[Gla]VCCDNPCTVATLRTFCH (disulfide I:9-II:7, I:21-II:20, II:6-II:11; C-terminus assumed) [Con-Ins G4b] | low nanomolar binding
